{"source": "paper PMC7586963", "about": "“Coumarin‐Tagged Dinuclear Trithiolato‐Bridged Ruthenium(II)⋅Arene Complexes: Photophysical Properties and Antiparasitic Activity” (Chembiochem, 2020)", "key": {"[1]": {"experiment": "in vitro", "conditions": "human", "procedure": "(§1) In addition, the effects on uninfected HFF host cells were assessed. […] The viability of HFF cultures following drug treatments was measured by alamarBlue assay, and the proliferation of T. gondii was quantified by measuring β‐galactosidase activity."}, "[2]": {"tested_on": "T. gondii β-gal tachyzoites", "experiment": "T. gondii β-gal tachyzoite proliferation in HFF (β-galactosidase/CPRG assay)", "conditions": "for activity at 0.1 µM / activity at 1 µM: read-out: T. gondii β-gal proliferation (%); for T. gondii β-gal proliferation (%): 3 days, relative to 0.1 % DMSO control; for IC50: read-out: IC50 against T. gondii β-gal tachyzoite proliferation", "procedure": "The compounds presented in this study were screened for biological activity in vitro against T. gondii β‐gal, a transgenic strain that constitutively expresses β‐galactosidase, which is grown in HFF monolayers. In addition, the effects on uninfected HFF host cells were assessed. […] The viability of HFF cultures following drug treatments was measured by alamarBlue assay, and the proliferation of T. gondii was quantified by measuring β‐galactosidase activity.\nIn vitro culture of parasites and host cells: If not stated otherwise, all tissue culture media were purchased from Gibco‐BRL, and biochemical reagents were from Sigma‐Aldrich). Human foreskin fibroblasts (HFF) were maintained in DMEM containing 10 % fetal calf serum (FCS; Gibco‐BRL) and antibiotics as described earlier.10 T. gondii β‐gal (transgenic T. gondii RH expressing the β‐galactosidase gene from E. coli 69 were maintained in HFF cells, and were isolated and separated from their host cells as described.10\nIn vitro assessment of drug efficacy: To study the effects of compounds against T. gondii tachyzoites in vitro, 1 mM stock solutions of complexes were prepared in DMSO, and stored at −20 °C. For assessment of drug efficacy against T. gondii tachyzoites, parasites were isolated and assays were performed using HFF as host cells as previously described.10 In short, 5×10^3 HFF cells per well were grown to confluence in a 96‐well plate in phenol‐red free culture medium at 37 °C with 5 % CO2. […] Initial assessments of drug efficacy were done by exposing parasite cultures to 0.1 and 1 μM of each compound for a period of three days, or 0.1 % DMSO was added as a control. […] After three days of incubation at 37 °C, 5 % CO2, medium was removed, and cell cultures were permeabilized by using 90 μL PBS containing 0.05 % Triton‐X‐100. After addition of 10 μL of 5 mM chlorophenol red‐β‐D‐galactopyranoside (CPRG; Roche Diagnostics) dissolved in PBS, the absorption shift was measured at 570 nm wavelength at various time points on a VersaMax multiplate reader (Bucher Biotec, Basel, Switzerland). For the initial screening at 0.1 and 1 μM, the activity, measured as the release of chlorophenol red over time, was calculated as percentage from DMSO control, which represented 100 % of T. gondii β‐gal growth. […] IC50 values were calculated after the logit‐log‐transformation of relative growth and subsequent regression analysis. All calculations were performed using the corresponding software tool contained in the Excel software package (Microsoft)."}, "[3]": {"tested_on": "human foreskin fibroblasts (HFF)", "procedure": "as §1"}, "[4]": {"tested_on": "human foreskin fibroblasts (HFF)", "experiment": "Cytotoxicity on uninfected confluent HFF (alamarBlue assay)", "conditions": "2.5 μM", "procedure": "as §1"}}, "note": "Read-outs that look alike come from different tables or passages of the source.", "data": [{"molecule": "CCN(CC)c1ccc2cc(C(=O)NCCCNC(=O)OC(C)(C)C)c(=O)oc2c1", "note": "[Compound 5]", "values": [{"measurement": "viability at 3 days, 0.1 µM", "setting": "[1]", "value": "118 ± 10", "unit": "%"}, {"measurement": "viability at 3 days, 1 µM", "setting": "[1]", "value": "88 ± 10", "unit": "%"}, {"measurement": "activity at 0.1 µM", "setting": "[2]; Toxoplasma gondii, 72 h", "value": "131 ± 3", "unit": "%"}, {"measurement": "activity at 1 µM", "setting": "[2]; Toxoplasma gondii, 72 h", "value": "118 ± 22", "unit": "%"}]}, {"molecule": "CCN(CC)c1ccc2cc(C(=O)NCCCCNC(=O)OC(C)(C)C)c(=O)oc2c1", "note": "[Compound 6]", "values": [{"measurement": "viability at 3 days, 0.1 µM", "setting": "[1]", "value": "98 ± 8", "unit": "%"}, {"measurement": "viability at 3 days, 1 µM", "setting": "[1]", "value": "82 ± 4", "unit": "%"}, {"measurement": "activity at 0.1 µM", "setting": "[2]; Toxoplasma gondii, 72 h", "value": "137 ± 9", "unit": "%"}, {"measurement": "activity at 1 µM", "setting": "[2]; Toxoplasma gondii, 72 h", "value": "125 ± 16", "unit": "%"}]}, {"molecule": "CC(C)(C)OC(=O)NCCCCNC(=O)c1cc2cc3c4c(c2oc1=O)CCCN4CCC3", "note": "[Compound 7]", "values": [{"measurement": "viability at 3 days, 0.1 µM", "setting": "[1]", "value": "95 ± 9", "unit": "%"}, {"measurement": "viability at 3 days, 1 µM", "setting": "[1]", "value": "96 ± 6", "unit": "%"}, {"measurement": "activity at 0.1 µM", "setting": "[2]; Toxoplasma gondii, 72 h", "value": "132 ± 6", "unit": "%"}, {"measurement": "activity at 1 µM", "setting": "[2]; Toxoplasma gondii, 72 h", "value": "148 ± 5", "unit": "%"}]}, {"molecule": "CCN(CC)c1ccc2cc(C(=O)NCCCN)c(=O)oc2c1", "note": "[Compound 8]", "values": [{"measurement": "viability at 3 days, 0.1 µM", "setting": "[1]", "value": "96 ± 9", "unit": "%"}, {"measurement": "viability at 3 days, 1 µM", "setting": "[1]", "value": "85 ± 6", "unit": "%"}, {"measurement": "activity at 0.1 µM", "setting": "[2]; Toxoplasma gondii, 72 h", "value": "117 ± 10", "unit": "%"}, {"measurement": "activity at 1 µM", "setting": "[2]; Toxoplasma gondii, 72 h", "value": "114 ± 13", "unit": "%"}]}, {"molecule": "CCN(CC)c1ccc2cc(C(=O)NCCCCN)c(=O)oc2c1", "note": "[Compound 9]", "values": [{"measurement": "viability at 3 days, 0.1 µM", "setting": "[1]", "value": "125 ± 20", "unit": "%"}, {"measurement": "viability at 3 days, 1 µM", "setting": "[1]", "value": "111 ± 4", "unit": "%"}, {"measurement": "activity at 0.1 µM", "setting": "[2]; Toxoplasma gondii, 72 h", "value": "114 ± 4", "unit": "%"}, {"measurement": "activity at 1 µM", "setting": "[2]; Toxoplasma gondii, 72 h", "value": "127 ± 4", "unit": "%"}]}, {"molecule": "NCCCCNC(=O)c1cc2cc3c4c(c2oc1=O)CCCN4CCC3", "note": "[Compound 10]", "values": [{"measurement": "viability at 3 days, 0.1 µM", "setting": "[1]", "value": "124 ± 5", "unit": "%"}, {"measurement": "viability at 3 days, 1 µM", "setting": "[1]", "value": "69 ± 9", "unit": "%"}, {"measurement": "activity at 0.1 µM", "setting": "[2]; Toxoplasma gondii, 72 h", "value": "101 ± 8", "unit": "%"}, {"measurement": "activity at 1 µM", "setting": "[2]; Toxoplasma gondii, 72 h", "value": "113 ± 7", "unit": "%"}]}, {"molecule": "O=C(O)c1cc2cc3c4c(c2oc1=O)CCCN4CCC3", "note": "[Dye2‐CO2H, 11‐oxo‐2,3,6,7‐tetrahydro‐1H,5H,11H‐pyrano[2,3‐f]pyrido[3,2,1‐ij]quinoline‐10‐carboxylic acid, reference compound]", "values": [{"measurement": "viability at 3 days, 0.1 µM", "setting": "[1]", "value": "106 ± 1", "unit": "%"}, {"measurement": "viability at 3 days, 1 µM", "setting": "[1]", "value": 105, "unit": "%"}, {"measurement": "HFF viability (%)", "setting": "[3]; 0.1 µM", "value": "did not affect viability of HFF"}, {"measurement": "HFF viability (%)", "setting": "[3]; 1 µM", "value": "did not affect viability of HFF"}, {"measurement": "T. gondii β-gal proliferation (%)", "setting": "[2]; 0.1 µM", "value": 69, "unit": "%"}, {"measurement": "activity at 0.1 µM", "setting": "[2]; Toxoplasma gondii, 72 h", "value": "69 ± 11", "unit": "%"}, {"measurement": "activity at 1 µM", "setting": "[2]; Toxoplasma gondii, 72 h", "value": "92 ± 6", "unit": "%"}]}, {"molecule": "CCc1nc(N)nc(N)c1-c1ccc(Cl)cc1", "note": "[pyrimethamine, reference compound]", "values": [{"measurement": "viability at 2.5 µM", "setting": "[1]", "value": 99, "unit": "%"}, {"measurement": "IC50", "setting": "[2]; Toxoplasma gondii, 72 h", "value": 326, "unit": "nM"}]}, {"molecule": "[(η6-p-MeC6H4Pri)2Ru2(µ2-SCH2C6H4-p-But)(µ2-SC6H4-p-OH)2]Cl [Compound 19]", "values": [{"measurement": "HFF viability (%)", "setting": "[3]; 0.1 µM", "value": "62 ± 8", "unit": "%"}, {"measurement": "HFF viability (%)", "setting": "[3]; 1 µM", "value": "56 ± 7", "unit": "%"}, {"measurement": "HFF viability at 2.5 μM", "setting": "[3]; 2.5 μM", "value": 2, "unit": "%"}, {"measurement": "T. gondii β-gal proliferation (%)", "setting": "[2]; 0.1 µM", "value": "3 ± 1", "unit": "%"}, {"measurement": "T. gondii β-gal proliferation (%)", "setting": "[2]; 1 µM", "value": "2 ± 0", "unit": "%"}, {"measurement": "IC50", "setting": "[2]; three days of incubation, in HFF host cells, 6 concentrations 0.03-1 μM", "value": 115, "unit": "nM"}, {"measurement": "reduction in HFF viability", "setting": "[4]", "value": 98, "unit": "%"}]}]}
